Results reported in article PMC8100298, “Histone deacetylase inhibitor resminostat in combination with sorafenib counteracts platelet-mediated pro-tumoral effects in hepatocellular carcinoma” (Scientific Reports, 2021).
Where two headings read alike, the source gives them in different places.

Experiments:
SNU-475 = test: Proliferation assay; assay type: cell-based; conditions: for EC50: Homo sapiens, read-out: EC50, anti-proliferative activity of kinase inhibitors
Text: (§1) The cell lines HepG2 (ACC180, RRID:CVCL_0027; DMSZ, Braunschweig Germany), SNU-475 (CRL-2236, Lot. 58483227, RRID:CVCL_0497; ATCC, Manassas, Virginia, US), SNU-387 (CRL-2237, Lot. 58483192, RRID:CVCL_0250; ATCC, Virginia, US), PLC/PRF/5 (300315, Lot. 812, RRID:CVCL_0485; CLS Cell Lines Service GmbH, Eppelheim, Germany) and HuH-7 (JCRB0403, Lot. 2272008, RRID:CVCL_0336; JCRB Cell Bank, Japan) were propagated according to the distributor’s guidelines. The authenticity of the cell lines was confirmed by short tandem repeat (STR) analysis (DSMZ, Braunschweig, Germany). Mycoplasma contamination was ruled out by PCR testing. For assays with platelet lysate (PL), FBS was substituted with 10% PLTMax Human Platelet Lysate (Cat. Nr. SCM141, Lot Number VP1602259; Millipore, Burlington, Massachusetts, US). The PL was supplemented with 20 U/ml Heparin (Heparin sodium salt from porcine intestinal mucosa, H4784-250MG; Sigma-Aldrich, Taufkirchen, Germany) to prevent coagulation.
(§2) Prior to the assay, the optimal seeding density was determined for each cell line to obtain an exponential growth during the experiment (2000 to 6000 cells per 96-well). Drug dilution series with 8 concentrations were prepared for EC50 determinations of single drugs. Three wells for each concentration were seeded (technical replicates). For drug combinations, dilution series of six concentrations for each drug alone or in combination at equal ratio were prepared. After 4 h of cell seeding, the drugs were added to the cells. Each 96-well plate contained a vehicle control (0.1% or 0.2% DMSO), a death control Ro 106-9920 (Tocris Cookson Ltd., Bristol, UK) a growth control (untreated cells compared to vehicle treated cells), and blank wells without cells. The proliferation assay was stopped after 4 days by crystal violet staining of the cells (0.5% in 20% methanol). Following extraction of the crystal violet with 8% acetic acid, the eluates were quantified photometrically at 570 nm and the reference wavelength 690 nm in an absorbance microplate reader (Tecan Sunrise; Tecan, Männedorf, Switzerland). Only readouts from 96-well plates with a Z-factor between 0.5 and 1.0 were used. Blank OD values were subtracted from the mean OD values. Nonlinear curve fitting and EC50 calculation was performed with Excel Solver.

PLC/PRF/5 = test: Proliferation assay; assay type: cell-based; conditions: for EC50: Homo sapiens
Text: as §1, §2

[1] = system: PLC/PRF/5 and SNU-475 cells; test: ELISA for growth factors PDGF-AA, TGF and VEGF; assay type: cell-based; conditions: tissue culture supernatants, with or without platelets (Fig. S4B)
Experimental: A. The growth factors PDGF-AA, TGFβ and VEGF were determined from tissue culture supernatants by ELISA. PLC/PRF/5 and SNU-475 cells were cultured with increasing […]
(1 picture or pasted object on this page, not shown here) […]
amounts of platelets. In parallel, platelets were cultured without cells to determine if the growth factors were platelet derived.
B. ELSIAs for PDGF-AA, TGFβ and VEGF were performed after drug treatment of PC/PRF/5 and SNU-475 cells. Cells were cultured as indicated with or without platelets and treated with resminostat, sorafenib, the drug combination or vehicle control 0.1% DMSO.
Table S1_ EC50 cell line screen
S1D. The cancer cell lines, their tissue origins and the respective EC50 values are shown.
Each cell line was seeded in duplicates.

HepG2 = test: Proliferation assay; assay type: cell-based; conditions: for EC50: Homo sapiens, 96 h, 4 days
Text: as §1, §2

SNU-387 = test: Proliferation assay; assay type: cell-based; conditions: SNU-387 vs HepG2, PLC/PRF/5, HuH-7 (Fig. 1F)
Text: as §1, §2

HuH-7 = test: Proliferation assay; assay type: cell-based; conditions: for EC50: Homo sapiens, 96 h, 4 days
Text: as §1, §2

[2] = system: Hep3B2.1-7 human hepatic carcinoma
Text: The orthotopic xenograft mouse model of Hep3B2.1–7 human hepatic carcinoma was previously established. Tumors were created by injection of 2.5 × 10^6 Hep3B2.1-7 cells (ATCC, RRID:CVCL_0326; Virginia, Manassas, USA) into the main lobe of the liver of anaesthetized female SCID mice (C.B-17-Igh-1bPrkdc(scid)). […] Treatments were continued for 21 days. Treatment of animals was ceased when the body weight dropped below 85% of that on entry of the study. Only mice culled at the termination date were used to determine the tumor weight. The experiment was conducted by vivoPharm pty Ltd (Bundoora, Australia) in accordance with the principles outlined in the “Australian Code of Practice for the Care and Use of Animals for Scientific Purposes”, 7th Edition, 2004 (National Health and Medical Research Council, Canberra, Australia). All procedures involving animals were reviewed and approved by the University of Adelaide Animal Ethics Committee. The study was carried out in compliance with the ARRIVE guidelines (http://www.nc3rs.org.uk/page.asp?id=1357). […]
invasion assay. The ODs of the invaded cells were normalized relative to ODs from tissue […]
Orthotopic xenograft mouse model
The orthotopic xenograft mouse model of Hep3B2.1-7 human hepatic carcinom a was previously established. The experiment was conducted by vivoPharm pty Ltd (Australia) in accordance with the principles outlined in the Australian Code of Practice for the Care and Use of Animals for Scientific Purposes, 7th Edition, 2004 (National Health and Medical Research Council). Procedures involving the care and use of animals in thi s study were reviewed and approved by the University of Adelaide Animal Ethics Committee. The study was carried out in compliance with the ARRIVE guidelines
(http://www.nc3rs.org.uk/page.asp?id=1357).
The animals were delivered to the test facility 1 1 days prior inoculation. On arrival, all animals received a detailed physical examination, including body weight measurement by the […]
technical staff. […] Each a nimal was identified by a transponder (Bar Code Data Systems Pty Ltd, Botany Bay, NSW, Australia) that could be scanned with a barcode reader (DataMars LabMax I). The transponder was implanted by subcutaneous injection between the shoulder blades while the mouse was under isoflurane-induced anaesthesia. The animals were housed in groups of six in micro-isolator cages (two cages per group). Each cage was clearly labelled with a cage card indicating study number, group, gender, and prescribed dose concentration and dose volume. The animals were kept in a controlled environment (targeted ranges: temperature 21 ± 3°C, humidity 30 -70%, 15 air changes per hour), with a light/dark cycle each of 12 hours, and under barrier (quarantine) conditions. Temperature and relative humidity were monitored continuously. All animals were subjected to the same environmental conditions. A standard certified commercial rodent diet (Rat and Mouse Cubes, Specialty Feeds Pty Ltd, Glen Forrest, WA, Australia) and tap water were provided to the animals ad libitum. Food supply was sterilized by autoclaving, and water […]
supply was sterilized by acidification with hydrochloric acid (pH 2.4-2.7) by Laboratory Animal Services, University of Adelaide (Adelaide, SA, Australia). Additional feed (a nimal seed, Magill Grain Store, Magill, SA, Australia), as well as wet standard feed was provided to all animals from Day 7 onwards, as a measure to minimize body w eight loss. The extent of adverse reaction was assessed during the study and mice were culled if severe adverse […]
The age range of the mice were 12-16 weeks at
Hep3B2.1-7 human hepatic carcinoma cells were sourced from the American Type Culture […]
Collection (ATCC; Virginia, USA).

[3] = PLC/PRF/5 (Fig. 6B), read-out: EC50, anti-proliferative activity of kinase inhibitors

Row | EC50 (SNU-475; SNU-475 (Fig. 6B)) [µM] | EC50 (HepG2; HepG2, fetal bovine serum, read-out: EC50 in FBS) [µM] | EC50 (HepG2; HepG2, platelet lysate, absolute EC50, read-out: EC50 in PL, absolute EC50 (*)) [µM] | EC50 compared to the epithelial cell lines (SNU-475; SNU-475 vs HepG2, PLC/PRF/5, HuH-7 (Fig. 1F)) | EC50 compared to the epithelial cell lines (SNU-387) | EC50 (HuH-7; HuH-7, fetal bovine serum, read-out: EC50 in FBS) [µM] | EC50 (HuH-7; HuH-7, platelet lysate, absolute EC50, read-out: EC50 in PL, absolute EC50 (*)) [µM] | SMILES | EC50 (PLC/PRF/5; [3]) [µM] | EC50, anti-proliferative activity of kinase inhibitors (SNU-475; SNU-475 (Fig. 6B)) | growth factors released by platelets or secreted by HCC cells [1] | Ratio PL/FBS (HepG2; HepG2, ratio of PL/FBS EC50s) | EC50 (PLC/PRF/5; 96 h, PLC/PRF/5, fetal bovine serum, 4 days, read-out: EC50 in FBS) [µM] | EC50 (PLC/PRF/5; 96 h, PLC/PRF/5, platelet lysate, 4 days, absolute EC50, read-out: EC50 in PL, absolute EC50 (*)) [µM] | effect of platelet factors on potency and efficacy (PLC/PRF/5; PLC/PRF/5, platelet lysate vs FBS dose-response curves (Fig. 2A)) | maximal inhibition (PLC/PRF/5; PLC/PRF/5, platelet lysate, at 25 µM) | Ratio PL/FBS (PLC/PRF/5; PLC/PRF/5, ratio of PL/FBS EC50s) | Ratio PL/FBS (HuH-7; HuH-7, ratio of PL/FBS EC50s) | Tumour weight, Mean ([2]; 40 mg/kg oral once daily, 21 days, SCID mice) [g] | tumor weight compared to the vehicle control ([2]; daily resminostat 15 and 40 mg/kg, sorafenib 40 mg/kg, or combination (Fig. 1B))
1 | ~5 | – | – | – | – | – | – | C[C@@H](Oc1cc(-c2cnn(C3CCNCC3)c2)cnc1N)c1c(Cl)ccc(F)c1Cl [crizotinib, Crizotinib] | ~5 | – | – | – | – | – | – | – | – | – | – | –
2 | > 25 | – | – | – | – | – | – | COc1cc2nccc(Oc3ccc(NC(=O)NC4CC4)c(Cl)c3)c2cc1C(N)=O [lenvatinib, Lenvatinib] | ~17 | could not be determined due to a lack of efficacy | – | – | – | – | – | – | – | – | – | –
3 | – | 1.8 ± 0.4 | 11.5 ± 1.3 | about three-fold higher | about three-fold higher | 4.4 ± 0.9 | 14 ± 2.5 | CNC(=O)c1cc(Oc2ccc(NC(=O)Nc3ccc(Cl)c(C(F)(F)F)c3)cc2)ccn1 [sorafenib, Sorafenib] | – | – | not consistantly affected | 6.4 | 4.8 ± 0.6 | 22.1 ± 2.5 | reduced | not reached | 4.6 | 3.2 | 1.11 | significantly reduced tumor weight
